Experimental data as given in PMC11012124, “Synthesis of Novel Triazine-Based Chalcones and 8,9-dihydro-7H-pyrimido[4,5-b][1,4]diazepines as Potential Leads in the Search of Anticancer, Antibacterial and Antifungal Agents” (International Journal of Molecular Sciences, 2024).
In brackets after ≈: the same amount, converted by molar mass.

How the values were obtained:
60 cancer cell lines = assay: NCI-60 one-dose screen (10 μM); format: cell-based; details: Homo sapiens; one dose of 10 μM, mean over 60 cancer cell lines; read-out: Mean Growth Percent (MGP)
Text: Additionally, the mean of the growth percentages (MGP) of each compound against all the 60 cancer cell lines is also reported, which is used as one of the selection criteria to continue with tests at five concentration doses.

[1] = test system: M. tuberculosis ATCC 27294; assay: Antitubercular broth microdilution MIC; format: cell-based; details: Mycobacterium tuberculosis; M. tuberculosis ATCC 27294 (H37Rv); read-out: Minimum inhibitory concentration (MIC)
[2] = test system: Trichophyton mentagrophytes (CCC 202-2000); assay: Antifungal broth microdilution (CLSI); format: cell-based; details: Tm: Trichophyton mentagrophytes
Method in brief: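 Broth microdilution followed CLSI M27-A3 for yeasts and the filamentous-fungi reference method, in 200 μL final volume with DMSO-matched growth controls. Plates were incubated in the dark and humid at 30 °C for a time suited to each fungus; testing was done in triplicate.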

[3] = Hemolytic activity, spectrophotometric; format: cell-based, human; details: human, human red blood cells (huRBC), 5% hematocrit, 200 μg/mL, 37 °C
RPMI-8226 = assay: cells; details: Homo sapiens, RPMI-8226, 48 h; for CC50: read-out: LC50
SR = assay: cells; details: Homo sapiens, 48 h; for CC50: read-out: LC50
HOP-62 = assay: cells; details: Homo sapiens, HOP-62, 48 h; for CC50: read-out: LC50
NCI-H226 = assay: cells; details: Homo sapiens, NCI-H226, 48 h; for CC50: read-out: LC50
NCI-H23 = assay: cells; details: Homo sapiens, NCI-H23, 48 h; for CC50: read-out: LC50
NCI-H322M = assay: cells; details: Homo sapiens, 48 h; for CC50: read-out: LC50
HCT-15 = assay: cells; details: Homo sapiens, HCT-15, 48 h; for CC50: read-out: LC50
SW-620 = assay: cells; details: Homo sapiens, SW-620, 48 h; for CC50: read-out: LC50
SF-295 = assay: cells; details: Homo sapiens, SF-295, 48 h; for CC50: read-out: LC50
MALME-3M = assay: cells; details: Homo sapiens, 48 h; for CC50: read-out: LC50
MDA-MB-435 = assay: cells; details: Homo sapiens, MDA-MB-435, 48 h; for CC50: read-out: LC50
IGROV1 = assay: cells; details: Homo sapiens, IGROV-1, 48 h; for CC50: read-out: LC50
OVCAR-4 = assay: cells; details: Homo sapiens, OVCAR-4, 48 h; for CC50: read-out: LC50
OVCAR-5 = assay: cells; details: Homo sapiens, OVCAR-5, 48 h; for CC50: read-out: LC50
OVCAR-8 = assay: cells; details: Homo sapiens, OVCAR-8, 48 h; for CC50: read-out: LC50
NCI/ADR-RES = assay: cells; details: Homo sapiens, 48 h; for CC50: read-out: LC50
SK-OV-3 = assay: cells; details: Homo sapiens, SK-OV-3, 48 h; for CC50: read-out: LC50
ACHN = assay: cells; details: Homo sapiens, 48 h; for CC50: read-out: LC50
RXF 393 = assay: cells; details: Homo sapiens, RXF 393, 48 h; for CC50: read-out: LC50
TK-10 = assay: cells; details: Homo sapiens, TK-10, 48 h; for CC50: read-out: LC50
DU-145 = assay: cells; details: Homo sapiens, DU-145, 48 h; for CC50: read-out: LC50
MCF7 = assay: cells; details: Homo sapiens, MCF7, 48 h; for CC50: read-out: LC50
BT-549 = assay: cells; details: Homo sapiens, BT-549, 48 h; for CC50: read-out: LC50
[4] = test system: N. gonorrhoeae ATCC 49226; assay: MIC on GC agar plates; format: cell-based, Neisseria gonorrhoeae; details: Neisseria gonorrhoeae, ATCC49226, read-out: MIC
Method in brief: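 N. gonorrhoeae (1 × 10^4 CFU) was spotted onto IsoVitaleX-supplemented (1%) GC agar containing graded compound levels. The lowest inhibitory concentration was recorded as the MIC, with oxidase testing used to verify growth, and each assay was done in duplicate on at least two separate occasions.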

COc1ccc(/C=C/C(=O)c2ccc(S(=O)(=O)NCCNc3nc(Nc4ccc(F)cc4)nc(N(C)C)n3)cc2)cc1 [24c]
activity at 10 µM (60 cancer cell lines): 24.7%
MIC [1]: 25 µg/mL (≈ 42.3 µM)
MIC [2]: > 250 µg/mL
hemolysis at 24 h, 200 µg/mL [3]: 0.1%
GI50 (RPMI-8226): 2.96 µM
CC50 (RPMI-8226): > 100 µM
GI50 (SR): 2.97 µM
CC50 (SR): > 100 µM
GI50 (HOP-62): 17.1 µM
CC50 (HOP-62): > 100 µM
GI50 (NCI-H226): 3.8 µM
CC50 (NCI-H226): > 100 µM
GI50 (NCI-H23): 10.4 µM
CC50 (NCI-H23): > 100 µM
GI50 (NCI-H322M): 10.2 µM
CC50 (NCI-H322M): > 100 µM
GI50 (HCT-15): 2.71 µM
CC50 (HCT-15): 27.4 µM
GI50 (SW-620): 5.42 µM
CC50 (SW-620): 52.3 µM
GI50 (SF-295): 5.05 µM
CC50 (SF-295): 62.4 µM
GI50 (MALME-3M): 10.6 µM
CC50 (MALME-3M): > 100 µM
GI50 (MDA-MB-435): 5.47 µM
CC50 (MDA-MB-435): 79.6 µM
GI50 (IGROV1): 10.8 µM
CC50 (IGROV1): > 100 µM
GI50 (OVCAR-4): 4.12 µM
CC50 (OVCAR-4): > 100 µM
GI50 (OVCAR-5): 8.43 µM
CC50 (OVCAR-5): > 100 µM
GI50 (OVCAR-8): 9.51 µM
CC50 (OVCAR-8): > 100 µM
GI50 (NCI/ADR-RES): 5.66 µM
CC50 (NCI/ADR-RES): > 100 µM
GI50 (SK-OV-3): 13.9 µM
CC50 (SK-OV-3): > 100 µM
GI50 (ACHN): 3.4 µM
CC50 (ACHN): > 100 µM
GI50 (RXF 393): 2.59 µM
CC50 (RXF 393): 41.7 µM
GI50 (TK-10): 8.09 µM
CC50 (TK-10): > 100 µM
GI50 (DU-145): 7.54 µM
CC50 (DU-145): > 100 µM
GI50 (MCF7): 1.93 µM
CC50 (MCF7): 46.1 µM
GI50 (BT-549): 13.2 µM
CC50 (BT-549): 56.7 µM

CN(C)c1nc(NCCNS(=O)(=O)c2ccc(C3=Nc4c(N)nc(N)nc4NC(c4ccc(C(F)(F)F)cc4)C3)cc2)nc(Nc2ccc(F)cc2)n1 (centres unmarked) [31g]
activity at 10 µM (60 cancer cell lines): 6.81%
MIC [1]: 5 µg/mL (≈ 6.65 µM)
MIC [2]: 62.5 µg/mL (≈ 83.1 µM)
hemolysis at 24 h, 200 µg/mL [3]: 3%
GI50 (RPMI-8226): 4 µM
CC50 (RPMI-8226): 86 µM
GI50 (HOP-62): 31.4 µM
CC50 (HOP-62): 86 µM
GI50 (NCI-H226): 37.3 µM
CC50 (NCI-H226): 86 µM
GI50 (NCI-H23): 27.7 µM
CC50 (NCI-H23): 86 µM
GI50 (NCI-H322M): 42.5 µM
CC50 (NCI-H322M): 86 µM
GI50 (HCT-15): 55.1 µM
CC50 (HCT-15): 86 µM
GI50 (SW-620): 14.3 µM
CC50 (SW-620): 86 µM
GI50 (SF-295): 12.9 µM
CC50 (SF-295): 86 µM
GI50 (MALME-3M): 11.3 µM
CC50 (MALME-3M): 24.2 µM
GI50 (MDA-MB-435): 9.13 µM
CC50 (MDA-MB-435): 86 µM
GI50 (IGROV1): 11.2 µM
CC50 (IGROV1): 86 µM
GI50 (OVCAR-4): 25 µM
CC50 (OVCAR-4): 86 µM
GI50 (OVCAR-5): 19.9 µM
CC50 (OVCAR-5): 86 µM
GI50 (OVCAR-8): 26.1 µM
CC50 (OVCAR-8): 86 µM
GI50 (NCI/ADR-RES): > 86 µM
CC50 (NCI/ADR-RES): > 86 µM
GI50 (SK-OV-3): > 86 µM
CC50 (SK-OV-3): > 86 µM
GI50 (ACHN): > 86 µM
CC50 (ACHN): > 86 µM
GI50 (RXF 393): 2.57 µM
CC50 (RXF 393): 18.8 µM
GI50 (TK-10): > 86 µM
CC50 (TK-10): > 86 µM
GI50 (DU-145): 38.5 µM
CC50 (DU-145): 86 µM
GI50 (MCF7): 2.87 µM
CC50 (MCF7): 21 µM
GI50 (BT-549): 11.8 µM
CC50 (BT-549): 32.6 µM

COc1cc(C2CC(c3ccc(Cl)cc3)=Nc3c(N)nc(N)nc3N2)ccc1Oc1nc(Nc2ccc(F)cc2)nc(N(C)C)n1 (centres unmarked) [29e]
activity at 10 µM (60 cancer cell lines): 40.9%
MIC [4]: ≥ 500 µg/mL
MIC [1]: 1.2 µg/mL (≈ 1.87 µM)
MIC [2]: > 250 µg/mL
GI50 (RPMI-8226): 26.4 µM
CC50 (RPMI-8226): > 100 µM
GI50 (SR): 3.41 µM
CC50 (SR): > 100 µM
GI50 (HOP-62): > 100 µM
CC50 (HOP-62): > 100 µM
GI50 (NCI-H226): > 100 µM
CC50 (NCI-H226): > 100 µM
GI50 (NCI-H23): > 100 µM
CC50 (NCI-H23): > 100 µM
GI50 (NCI-H322M): > 100 µM
CC50 (NCI-H322M): > 100 µM
GI50 (HCT-15): 76.6 µM
CC50 (HCT-15): > 100 µM
GI50 (SW-620): > 100 µM
CC50 (SW-620): > 100 µM
GI50 (SF-295): > 100 µM
CC50 (SF-295): > 100 µM
GI50 (MALME-3M): > 100 µM
CC50 (MALME-3M): > 100 µM
GI50 (MDA-MB-435): > 100 µM
CC50 (MDA-MB-435): > 100 µM
CC50 (IGROV1): > 100 µM
GI50 (OVCAR-4): 18.9 µM
CC50 (OVCAR-4): > 100 µM
GI50 (OVCAR-5): > 100 µM
CC50 (OVCAR-5): > 100 µM
GI50 (OVCAR-8): > 100 µM
CC50 (OVCAR-8): > 100 µM
GI50 (SK-OV-3): > 100 µM
CC50 (SK-OV-3): > 100 µM
GI50 (ACHN): > 100 µM
CC50 (ACHN): > 100 µM
GI50 (RXF 393): 2.46 µM
CC50 (RXF 393): > 100 µM
GI50 (TK-10): > 100 µM
CC50 (TK-10): > 100 µM
GI50 (DU-145): > 100 µM
CC50 (DU-145): > 100 µM
GI50 (MCF7): 9.9 µM
CC50 (MCF7): > 100 µM
GI50 (BT-549): 35.5 µM
CC50 (BT-549): > 100 µM

CN(C)c1nc(NCCNS(=O)(=O)c2ccc(C(=O)/C=C/c3ccc(Cl)cc3)cc2)nc(Nc2ccc(F)cc2)n1 [24e]
activity at 10 µM (60 cancer cell lines): -46.6%
MIC [4]: 500 µg/mL (≈ 839 µM)
MIC [1]: 25 µg/mL (≈ 41.9 µM)
MIC [2]: 125 µg/mL (≈ 210 µM)
hemolysis at 24 h, 200 µg/mL [3]: 9.1%
GI50 (RPMI-8226): 2.47 µM
CC50 (RPMI-8226): 7.11 µM
GI50 (HOP-62): 12.5 µM
CC50 (HOP-62): 27.5 µM
GI50 (NCI-H226): 6.14 µM
CC50 (NCI-H226): 24.3 µM
GI50 (NCI-H23): 10.7 µM
CC50 (NCI-H23): 23.4 µM
GI50 (NCI-H322M): 9.36 µM
CC50 (NCI-H322M): 24.9 µM
GI50 (HCT-15): 4.62 µM
CC50 (HCT-15): 16.9 µM
GI50 (SW-620): 2.78 µM
CC50 (SW-620): 11 µM
GI50 (SF-295): 6.11 µM
CC50 (SF-295): 19.8 µM
GI50 (MALME-3M): 12.8 µM
CC50 (MALME-3M): 26.4 µM
GI50 (MDA-MB-435): 3.8 µM
CC50 (MDA-MB-435): 14 µM
GI50 (IGROV1): 8.58 µM
CC50 (IGROV1): 21.4 µM
GI50 (OVCAR-4): 5.92 µM
CC50 (OVCAR-4): 22 µM
GI50 (OVCAR-5): 10.7 µM
CC50 (OVCAR-5): 22.6 µM
GI50 (OVCAR-8): 10.2 µM
CC50 (OVCAR-8): 23.7 µM
GI50 (NCI/ADR-RES): 5.49 µM
CC50 (NCI/ADR-RES): 18.4 µM
GI50 (SK-OV-3): 11.5 µM
CC50 (SK-OV-3): 27.7 µM
GI50 (ACHN): 4.2 µM
CC50 (ACHN): 15.3 µM
GI50 (RXF 393): 3.09 µM
CC50 (RXF 393): 15.1 µM
GI50 (TK-10): 11.7 µM
CC50 (TK-10): 30.3 µM
GI50 (DU-145): 9.7 µM
CC50 (DU-145): 21.8 µM
GI50 (MCF7): 2.28 µM
CC50 (MCF7): 6.33 µM
GI50 (BT-549): 11.6 µM
CC50 (BT-549): 23.9 µM
